Results reported in patent publication US9924717B2, “Molecules having pesticidal utility, and intermediates, compositions, and processes, related thereto” (Dow AgroSciences LLC, priority 2016, dated 2018).

Key:
Assay type in all cases: in vivo
[1] = tested on: Yellow Fever Mosquito (Aedes aegypti, AEDSAE) (YFM); assay: Bioassays on Yellow Fever Mosquito (YFM), 96-well plate larval assay; settings: Table ABC rating
Procedure: Example C: Bioassays on Yellow Fever Mosquito (Aedes aegypti, AEDSAE) (“YFM”)
Certain molecules disclosed in this document were tested against YFM using procedures described in the following paragraph. In the reporting of the results, the “GPA & YFM Rating Table” was used (See Table Section).
Master plates containing 400 μg of a molecule dissolved in 100 μL of dimethyl sulfoxide (DMSO) (equivalent to a 4000 ppm solution) are used. A master plate of assembled molecules contains 15 μL per well. To this plate, 135 μL of a 90:10 water:acetone mixture is added to each well. A robot (Biomek® NXP Laboratory Automation Workstation) is programmed to dispense 15 μL aspirations from the master plate into an empty 96-well shallow plate (“daughter” plate). There are 6 reps (“daughter” plates) created per master. The created daughter plates are then immediately infested with YFM larvae.
The day before plates are to be treated, mosquito eggs are placed in Millipore water containing liver powder to begin hatching (4 g. into 400 mL). After the daughter plates are created using the robot, they are infested with 220 μL of the liver powder/larval mosquito mixture (about 1 day-old larvae). After plates are infested with mosquito larvae, a non-evaporative lid is used to cover the plate to reduce drying. Plates are held at room temperature for 3 days prior to grading. After 3 days, each well is observed and scored based on mortality. The results are indicated in the table entitled “Table ABC: Biological Results” (See Table Section).

[2] = tested on: Cabbage Looper (Trichoplusia ni, TRIPNI) (CL); assay: Bioassays on Cabbage Looper (CL), 128-well diet tray assay; settings: Table ABC rating, Cabbage Looper
Procedure: (§1) Example A: Bioassays on Beet Armyworm (Spodoptera exigua, LAPHEG) (“BAW”), Corn Earworm (Helicoverpa zea, Helize) (“CEW”), and Cabbage Looper (Trichoplusia ni, TRIPNI) (“CL”)
(§2) Certain molecules disclosed in this document were tested against BAW, CEW, and CL using procedures described in the following examples. In the reporting of the results, the “BAW, CEW, & CL Rating Table” was used (See Table Section).
Bioassays on CL were conducted using a 128-well diet tray assay. one to five second instar CL larvae were placed in each well (3 mL) of the diet tray that had been previously filled with 1 mL of artificial diet to which 50 μg/cm^2 of the test molecule (dissolved in 50 μL of 90:10 acetone-water mixture) had been applied (to each of eight wells) and then allowed to dry. Trays were covered with a clear self-adhesive cover and held at 25° C., 14:10 light-dark for five to seven days. Percent mortality was recorded for the larvae in each well; activity in the eight wells was then averaged. The results are indicated in the table entitled “Table ABC: Biological Results” (See Table Section).
(§3) Bioassays on BAW and CL were conducted according to the procedures outlined in Example A: Bioassays on Beet Armyworm (“BAW”) and Cabbage Looper (“CL”) using the indicated concentrations.

[3] = tested on: Beet Armyworm (Spodoptera exigua, LAPHEG) (BAW); assay: Bioassays on Beet Armyworm (BAW), 128-well diet tray assay; settings: Table ABC rating, Beet Armyworm
Procedure: as §1, §2
Bioassays on BAW were conducted using a 128-well diet tray assay. one to five second instar BAW larvae were placed in each well (3 mL) of the diet tray that had been previously filled with 1 mL of artificial diet to which 50 μg/cm^2 of the test molecule (dissolved in 50 μL of 90:10 acetone-water mixture) had been applied (to each of eight wells) and then allowed to dry. Trays were covered with a clear self-adhesive cover and held at 25° C., 14:10 light-dark for five to seven days. Percent mortality was recorded for the larvae in each well; activity in the eight wells was then averaged. The results are indicated in the table entitled “Table ABC: Biological Results” (See Table Section).
as §3

Row | Structure (SMILES) | YFM [1] | pest or weed control at 50 µg/cm2 [2] [%] | pest or weed control at 50 µg/cm2 [3] [%]
1 | O=C(Nc1ccc(Cl)nc1)c1ccc(/C(F)=C/C(c2cc(Cl)c(Cl)c(Cl)c2)C(F)(F)F)cc1C(F)(F)F (stereo not drawn) [F26] | A (80-100) | 50 to 100 | 50 to 100
2 | O=C(NC1CC1)c1ccc(/C(F)=C/C(c2cc(Br)cc(Br)c2)C(F)(F)F)cc1C(F)(F)F (stereo not drawn) [F42, (Z)—N-Cyclopropyl-4-(3-(3,5-dibromophenyl)-1,4,4,4-tetrafluorobut-1-en-1-yl)-2-(trifluoromethyl)benzamide] | A (80-100) | 50 to 100 | 50 to 100
3 | Cc1cc(C(/C=C(\F)c2ccc(C(=O)NC(C)C(F)(F)F)c(C(F)(F)F)c2)C(F)(F)F)cc(C)c1Cl (stereo not drawn) [F30, 4-((Z)-3-(4-Chloro-3,5-dimethylphenyl)-1,4,4,4-tetrafluorobut-1-en-1-yl)-2-(trifluoromethyl)-N-(1,1,1-trifluoropropan-2-yl)benzamide] | A (80-100) | 50 to 100 | 50 to 100
4 | O=C(NC1CCC(F)(F)CC1)c1ccc(/C(F)=C/C(c2cc(Cl)cc(Cl)c2)C(F)(F)F)cc1C(F)(F)F (stereo not drawn) [F25, (Z)-4-(3-(3,5-Dichlorophenyl)-1,4,4,4-tetrafluorobut-1-en-1-yl)-N-(4,4-difluorocyclohexyl)-2-(trifluoromethyl)benzamide] | A (80-100) | 50 to 100 | 50 to 100
5 | O=C(NC1CC1)c1ccc(/C(F)=C/C(c2cc(Br)c(Cl)c(Br)c2)C(F)(F)F)cc1C(F)(F)F (stereo not drawn) [F12, (Z)—N-cyclopropyl-4-(3-(3,5-dibromo-4-chlorophenyl)-1,4,4,4-tetrafluorobut-1-en-1-yl)-2-(trifluoromethyl)benzamide] | A (80-100) | 50 to 100 | 50 to 100
6 | O=C(NCC(F)(F)F)c1ccc(/C(F)=C/C(c2cc(Cl)c(Cl)c(Cl)c2)C(F)(F)F)c2ccccc12 (stereo not drawn) [PF1, (Z)-4-(1,4,4,4-Tetrafluoro-3-(3,4,5-trichlorophenyl)but-1-en-1-yl)-N-(2,2,2-trifluoroethyl)-1-naphthamide] | A (80-100) | 50 to 100 | 50 to 100
7 | O=C(NC1CCC(F)(F)CC1)c1ccc(/C(F)=C/C(c2cc(Br)cc(Br)c2)C(F)(F)F)cc1C(F)(F)F (stereo not drawn) [F40, (Z)-4-(3-(3,5-Dibromophenyl)-1,4,4,4-tetrafluorobut-1-en-1-yl)-N-(4,4-difluorocyclohexyl)-2-(trifluoromethyl)benzamide] | A (80-100) | 50 to 100 | 50 to 100
8 | CC(NC(=O)c1ccc(/C(F)=C/C(c2cc(Cl)c(F)c(Cl)c2)C(F)(F)F)cc1C(F)(F)F)C(F)(F)F (stereo not drawn) [F27, (Z)-4-(3-(3,5-Dichloro-4-fluorophenyl)-1,4,4,4-tetrafluorobut-1-en-1-yl)-2-(trifluoromethyl)-N-(1,1,1-trifluoropropan-2-yl)benzamide] | A (80-100) | 50 to 100 | 50 to 100
9 | O=C(NCc1ccccn1)c1ccc(/C(F)=C/C(c2cc(Cl)c(Cl)c(Cl)c2)C(F)(F)F)cc1C(F)(F)F (stereo not drawn) [F51, (Z)—N-(Pyridin-2-ylmethyl)-4-(1,4,4,4-tetrafluoro-3-(3,4,5-trichlorophenyl)but-1-en-1-yl)-2-(trifluoromethyl)benzamide] | A (80-100) | 50 to 100 | 50 to 100
10 | O=C(NC1CC1)c1ccc(/C(F)=C/C(c2ccc(Br)c(Br)c2)C(F)(F)F)cc1C(F)(F)F (stereo not drawn) [F46, (Z)—N-Cyclopropyl-4-(3-(3,4-dibromophenyl)-1,4,4,4-tetrafluorobut-1-en-1-yl)-2-(trifluoromethyl)benzamide] | A (80-100) | 50 to 100 | 50 to 100
11 | CN(CC(F)(F)F)C(=S)c1ccc(/C(F)=C/C(c2cc(Cl)c(Cl)c(Cl)c2)C(F)(F)F)cc1C(F)(F)F (stereo not drawn) [F34, (Z)—N-Methyl-4-(1,4,4,4-tetrafluoro-3-(3,4,5-trichlorophenyl)but-1-en-1-yl)-N-(2,2,2-trifluoroethyl)-2-(trifluoromethyl)benzothioamide] | B (More than 0-Less than 80) | 50 to 100 | 50 to 100
12 | CC(NC(=O)c1ccc(/C(F)=C/C(c2cc(Br)cc(Br)c2)C(F)(F)F)cc1C(F)(F)F)C(F)(F)F (stereo not drawn) [F28, (Z)-4-(3-(3,5-Dibromophenyl)-1,4,4,4-tetrafluorobut-1-en-1-yl)-2-(trifluoromethyl)-N-(1,1,1-trifluoropropan-2-yl)benzamide] | A (80-100) | 50 to 100 | 50 to 100
13 | O=C(NCc1ccc(Cl)nc1)c1ccc(/C(F)=C/C(c2cc(Cl)c(Cl)c(Cl)c2)C(F)(F)F)cc1C(F)(F)F (stereo not drawn) [F11, (Z)—N-((6-Chloropyridin-3-yl)methyl)-4-(1,4,4,4-tetrafluoro-3-(3,4,5-trichlorophenyl)but-1-en-1-yl)-2-(trifluoromethyl)benzamide] | A (80-100) | 50 to 100 | 50 to 100
14 | CN(CC(F)(F)F)C(=O)c1ccc(/C(F)=C/C(c2cc(Cl)c(Cl)c(Cl)c2)C(F)(F)F)cc1C(F)(F)F (stereo not drawn) [F29, (Z)—N-Methyl-4-(1,4,4,4-tetrafluoro-3-(3,4,5-trichlorophenyl)but-1-en-1-yl)-N-(2,2,2-trifluoroethyl)-2-(trifluoromethyl)benzamide] | A (80-100) | 50 to 100 | 50 to 100
15 | O=C(NC1CCC(F)(F)CC1)c1ccc(/C(F)=C/C(c2cc(Cl)c(Br)c(Cl)c2)C(F)(F)F)cc1C(F)(F)F (stereo not drawn) [F21] | A (80-100) | 50 to 100 | 50 to 100
16 | O=C(NC1CC1)c1ccc(/C(F)=C/C(c2cc(Cl)cc(Cl)c2)C(F)(F)F)cc1C(F)(F)F (stereo not drawn) [F23, (Z)—N-Cyclopropyl-4-(3-(3,5-dichlorophenyl)-1,4,4,4-tetrafluorobut-1-en-1-yl)-2-(trifluoromethyl)benzamide] | A (80-100) | 50 to 100 | 50 to 100
17 | CC(NC(=O)c1ccc(/C(F)=C/C(c2ccc(Br)c(Br)c2)C(F)(F)F)cc1C(F)(F)F)C(F)(F)F (stereo not drawn) [F45, 4-((Z)-3-(3,4-Dibromophenyl)-1,4,4,4-tetrafluorobut-1-en-1-yl)-2-(trifluoromethyl)-N-(1,1,1-trifluoropropan-2-yl)benzamide] | B (More than 0-Less than 80) | 50 to 100 | 50 to 100
